Values quoted from earlier work in US12223643B2, “Machine-learning system for diagnosing disorders and diseases and determining drug responsiveness” (Sanford Burnham Prebys Medical Discovery Institute, priority 2019, dated 2025).

System: bipolar disorder (BPD) patients

Question: What does the source list for `O=C([O-])[O-].[Li+].[Li+]` [Lithium carbonate]?
Answer: patients respond to lithium treatment: approximately 35%; risk of suicide: reduce the risk of suicide
